Measured values taken from US20070203244A1, “INHIBITORS OF MEMBRANE TYPE-1 MATRIX METALLOPROTEINASE FOR THE TREATMENT OF INSULIN-DEPENDENT DIABETES MELLITUS” (priority 2006, published 2007).

Columns and labels:
MT1-MMP = biological target: T1, MT1-MMP (Mus musculus, UniProt P53690); assay: MT1-MMP-dependent MMP-2 activation in adherent IS-CD8+ cells, gelatin zymography; type: cell-based, NOD mouse
T1 construct: Endogenous MT1-MMP is latent in non-adherent IS-CD8^+ cells; endogenous in cells; host or cells: IS-CD8+ T cells (TGNFC8 clone, NOD mouse), adherent to gelatin
Method: MT1-MMP-dependent MMP-2 Activation and Gelatin Zymography—IS-CD8^+ cells (1×10^6) were either allowed to adhere for 4 h in serum-free unsupplemented Click's medium to plastic coated with 2% gelatin or kept in solution. Under these experimental conditions, the vast majority of cells became attached to gelatin. In 4 h, media samples (30 μl each) were withdrawn and analyzed by gelatin zymography (Deryugina, E. I., et al. (2001)) to identify the proteolytic activity and the activation status of MMP-2 naturally synthesized by IS-CD8^+ cells. Where indicated, cells were supplemented with external purified pro-MMP-2 (20 ng). Pro-MMP-2 was isolated from a conditioned medium of p2AHT2A72 cells derived from an HT1080 fibrosarcoma cell line sequentially transfected with the E1A and MMP-2 cDNAs (Strongin, A. Y., et al. (1995)).
MT1-MMP-dependent MMP-2 activation and gelatin zymography—IS-CD8^+ cells (1×10^6) were either allowed to adhere for 4 h in serum-free unsupplemented Click's medium to the plastic coated with 2% gelatin or kept in solution. In 18 h, media samples (30 μl each) were withdrawn and analyzed by gelatin zymography (Deryugina, E. I., et al. (2001)) to identify the proteolytic activity and the activation status of MMP-2 naturally synthesized by IS-CD8^+ cells. […] Pro-MMP-2 was isolated from a conditioned medium of p2AHT2A72 cells derived from an HT1080 fibrosarcoma cell line sequentially transfected with the E1A and MMP-2 cDNAs (Strongin, A. Y., et al. (1995)).

[1] = test system: CD44 shedding in IS-CD8+ cells; assay: CD44 shedding in adherent IS-CD8+ cells, Western blotting; type: cell-based, NOD mouse
Method: Western Blotting—IS-CD8^+ cells were surface biotinylated for 1 h at 4° C. with 0.1 mg/ml sulfo-NHS-LC-biotin (Pierce, Rockford, Ill.). Following washes to remove biotin, cells were co-incubated for 2 h with MT1-MMP-CAT in serum-free, unsupplemented Click's medium. The cells were then lysed with 50 mM N-octyl-β-D-glucopyranoside in phosphate-buffered saline supplemented with 1 mM CaCl2, 1 mM MgCl2, and protease inhibitor mixture containing phenylmethylsulfonyl fluoride (1 mM) and aprotinin, pepstatin, and leupeptin (1 μg/ml each). Biotin-labeled CD44 was captured from the cell lysate and from the medium aliquots on streptavidin-agarose beads. The captured samples were examined by Western blotting with the CD44 (clone IM7.8.1) antibody to determine the released, soluble, CD44 ectodomain in the medium samples and the residual, membrane-anchored, cellular CD44 in the cell lysates.
Western blotting—IS-CD8^+ cells were surface biotinylated for 1 hr at 4° C. with 0.1 mg/ml of sulfo-NES-LC-biotin (Pierce). Following washes to remove biotin, the labeled cells were allowed to adhere in serum-free medium to plastic coated with 2% type I collagen/gelatin for 4 h or were kept in suspension. Under these experimental conditions, the vast majority of the cells became attached to gelatin. […] The cells were then lysed with 50 mM N-octyl-β-D-glucopyranoside in PBS supplemented with 1 mM CaCl2, 1 mM MgCl2, and protease inhibitor cocktail containing phenylmethylsulfonyl fluoride (1 mM) and aprotinin, pepstatin, and leupeptin (1 μg/ml each). Biotin-labeled CD44 was captured from the cell lysate and from the medium aliquots on streptavidine-Agarose beads. The captured samples were examined by Western blotting with the CD44 (clone IM7.8.1) antibody to determine the released, soluble, CD44 ectodomain in the medium samples and the residual, membrane-anchored, cellular CD44 in the cell lysates.

NOD mice = assay: Spontaneous diabetes in NOD mice, insulin jointly with AG3340; type: in vivo
Method: Newly diabetic NOD mice—NOD mice developed diabetes in approximately 5 months after the birth. The onset of spontaneous diabetes was identified by assessing urine glucose levels with Diastix® strips (Bayer). Mice with urine glucose levels >2000 mg/dl for three consecutive days were considered diabetic. […] Injections were continued for 40 days and then mice were sacrificed. Leukocytes and granulated β cells were stained with H&E and aldehyde fuchsin, respectively, in the sections of paraformaldehyde-fixed, paraffin-embedded, pancreata. […] To identify hormone-producing cells the sections were stained with the antibody to insulin (Linco Research, St. Charles, Mo.) and glucagons (DacoCytomation, Carpinteria, Calif.) followed by species-specific secondary horseradish peroxidase-conjugated antibody and a 3,3′-diaminobenzidine substrate.
Insulin injections were then suspended. Mice which after the onset of the disease received insulin became hyperglycemic in a matter of 2-3 days and were then sacrificed according to NIH guidelines.

[2] = AG3340 1 mg/kg i.p. with insulin, 40 days

## CC1(C)SCCN(S(=O)(=O)c2ccc(Oc3ccncc3)cc2)[C@H]1C(=O)NO [AG3340]
MT1-MMP; Example 2: AG3340 50 μM, TIMP-1 and TIMP-2 100 ng/ml, 18 h
  activation of MMP-2 in adherent cells: fully blocked
MT1-MMP; Example 3: inhibitors added for 18 h
  activation of MMP-2 in adherent cells: fully blocked
[1]; Example 2: AG3340 50 μM, TIMP-1 and TIMP-2 100 ng/ml
  shedding of CD44 in adherent cells: fully blocked
[1]; Example 3
  shedding of CD44 in adherent cells: fully blocked
NOD mice; [2]
  islet regeneration in the pancreatic parenchyma: de novo formation of the islet-like structures
  number of the intact islets and the islets with limited peri-islet insulitis: increase
NOD mice; insulin jointly with AG3340 for 40 days, then no external insulin
  glycemia after insulin injections were suspended: normoglycemic/mildly hyperglycemic for several weeks
NOD mice; insulin s.c. jointly with AG3340 1 mg/kg i.p. every two-three days, 40 days
  severity of insulitis compared to the control: significant and promising reduction
NOD mice; short-term treatment, AG3340 1 mg/kg i.p. with insulin, 40 days
  return of overtly diabetic mice to normoglycemia: not sufficient
